Source: publication PMC9986545, “A novel oral formulation of the melanocortin-1 receptor agonist PL8177 resolves inflammation in preclinical studies of inflammatory bowel disease and is gut restricted in rats, dogs, and humans” (Frontiers in Immunology, 2023)

How the values were obtained:
[1] = tested on: male Wistar rats with DSS-induced colitis; assay: DSS-induced colitis model in rats; type: in vivo
Protocol: . Groups of 6 male Wistar rats weighing 200 ± 20 g were used. All animals, except those in the sham group, received 5% DSS in the drinking water for 3 days, from day 1 to day 3, which was then changed to normal drinking water for the following 5 days in the study. The rats in the sham group were given drinking water only. […]. Mesalazine, which is approved for the treatment of IBD, including ulcerative colitis and Crohn’s disease, was administered orally as a positive control (300 mg/kg once daily) starting on day 4 through day 7 for a total of 4 consecutive days ( Figure 1 ). Colitis was assessed by disease activity index (diarrhea and rectal bleeding) during the study and by colon length shortening, colon weight gain, and colon histopathologic assessment after organ harvesting on day 8. At termination on day 8, 24 hours after the last dose, colon tissues were harvested, rinsed, photographed, weighed, and their lengths measured, and then cut into 2 halves 7 cm from the anus. One half of the harvested colon tissue was snap-frozen with liquid nitrogen for cytokine measurement (interferon [IFN]-γ, IL-1β, IL-6, and TNF-α). The other half of the colon tissue was further cut into 3 parts 2.5, 5, and 7 cm from the anus, fixed in 10% formalin, and kept in 70% ethanol for histopathology. The colon length and colon-to-body weight ratio was calculated for each animal according to the formula: colon weight (g)/body weight (g) × 100%. Colon tissues from rats (n=6 per treatment group) were drop-fixed in 4% paraformaldehyde embedded in paraffin, and sectioned at 4 µm. For histologic scoring, colon sections were stained with hematoxylin and eosin. For immunohistochemistry, colon sections were processed for antigen retrieval and immunostained with primary antibody: keratin 18 (K18) (1:400, Bioss, bs-5405R) and with a rabbit-specific biotin-conjugated secondary antibody from HistoWiz (HistoWiz, Inc. Brooklyn, NY). Representative images were taken at 10x magnification and quantification was performed using HistoWiz AI technology counting positive cells versus all nuclei, specifically in the crypts. All analyses were performed by blinded individuals.
Histologic criteria for the analysis of colitis included abnormalities of mucosal architecture, extent of inflammation, erosion or ulceration, epithelial regeneration, and the percentage involvement of the disease process. The scoring was based on the findings of independent observers by examining 3 colon sections from each animal. Scoring was from 0 = none to 4 = severe for each item, except for percentage involvement of disease process, which scored from 1 (1%–25%) to 4 (76%–100%). Total scores for colitis (total colitis index) were added, resulting in a combined histologic score range from 0 to 60 ( Table S1 ).
Descriptive statistics were used for assessment of colon damage scores (diarrhea, rectal bleeding, and colon weight gain) (DNBS and DSS rat studies) and for the distribution of PL8177 and main metabolite in the GI tract (Sprague-Dawley rat and dog studies). Mean ± SEM were determined, and 1-way analysis of variance followed by Dunnett’s test was applied for comparison between the vehicle and treated groups. Significance was set at the P<0.05 level.
Table S1.Scoring Table for Calculating Total Colitis Index Score in DSS Colitis –Induced Rats
Abnormalities of mucosal None (Norm al) 0
Minimal for focal, not exceeding laminar propria 1
Mild abnormality, cystic dilation/aberrant crypts 2
Moderate or multifocal abnormalities 3
Severe, entire crypt and epithelium lost 4
Extent of inflammation None 0
Minimal for focal, scatter ed calls (<10 %) 1
Moderate, inflammatory cells extending into the submucosa 3
Severe, transmural leukocytic infiltrate from mucosa to serosa 4
Erosion or ulceration No erosion, ulceration, or granulation tissue 0
Minimal or focal, not exceeding lamina propri a 1
Severe ulceration or granulation tissue 4
Epithelial regression Complete regeneration or normal tissue 0 […]

[2] = tested on: mice with colitis; set-up: method as in PMID 9145424; details: twice-daily α-MSH exposure; cited from earlier work
[3] = Mesalazine 300 mg/kg QD oral, days 4-7, day 8, n=6

Compound	% Decrease in Colon Weight vs Vehicle Control ([1]; Mesalazine 300 mg/kg QD oral, days 4-7, day 8)	Mean Colon Length (SEM) [1, 3]	Mean Colon Weight (SEM) [1, 3]	Mean Colon Weight/100 g Body Weight (SEM) [1, 3]	Net Increase (SEM) of colon weight/100 g body weight [1, 3]	Mean Body Weight (SEM) (Day 8) ([1]; Mesalazine 300 mg/kg QD oral, days 4-7, n=6)	Number of K18 positive cells in colon crypts (immunohistochemistry) vs vehicle ([1]; PL8177 (100 µg) or mesalazine, day 8)	Total colitis score (total colitis index), mean [SD] ([1]; mesalazine 300 mg/kg QD oral, histology day 8, n=6, range 0-60)	Reduction in fecal blood [2]
Nc1ccc(O)c(C(=O)O)c1 [Mesalazine]	35%	18.6 (0.5) cm	0.570 (0.031) g	0.235 (0.012)	0.073 (0.012)	242.5 (3.0) g	increased number of K18 positive cells, similar to sham	28.5 [7.71]	–
α-MSH	–	–	–	–	–	–	–	–	80%
